Values of other authors as cited in PMC5778071, “Development of matrix metalloproteinase-targeted probes for lung inflammation detection with positron emission tomography” (Scientific Reports, 2018).

Design: method as in PMID 25822732
Conditions: cited from earlier work

## CC(C)C[C@H](CC(=O)NO)C(=O)N[C@@H](Cc1ccccc1)C(=O)N[C@@H](CCCCNC(=O)c1ccc([18F])cc1)C(N)=O [^18F-FB-ML5]
  accumulation ratio of lung to liver: < 0.1
